Consider 3 molecules from patent publication US20260273028A1, “PEROXIDASE COMPOSITIONS CONTAINING IMPROVED ENHANCING AGENTS” (FLEN HEALTH PHARMA NV, priority 2022, published 2026).

For series [1], the system named is Aspergillus niger ATCC®16404™. The experiment in a line: Absolute microbial counts in function of enzyme solution concentration. It is filed as cell-based. The following applies: 0.005%-0.000156% (v/v) GOX+LPO. From the text: (§1) Absolute microbial counts in function of concentration of the antimicrobial agent tested are useful to monitor the bactericidal and fungicidal efficacy of that agent.
(§2) To determine the absolute number of live microorganisms in function of different enzyme solution concentrations tested, a classical broth microdilution assay combined with standard CFU enumeration techniques was used to determine the susceptibility of a series of microbes commonly detected in infected wounds, including (a) the Gram-positive bacterium Staphylococcus aureus ATCC® 6538™ (results shown below), (b) the Gram-negative bacterium Pseudomonas aeruginosa ATCC®9027™ (results shown below), (c) the yeast Candida albicans ATCC®10231™ (results shown below), and (d) the fungus Aspergillus niger ATCC®16404™ (results shown below). In brief, the broth microdilution assay was set up as previously described (see 2.1). After incubation, the absolute microbial count at the MIC and following higher concentrations (MICx2, MICx4, and so on) was determined using standard CFU enumeration techniques. For each combination evaluated, this test was repeated at least 5 times. The collected data were further analyzed in MS Excel and expressed as log CFU/ml. Mean results were plotted in function of enzyme solution concentration.

In series [2] the test system is Pseudomonas aeruginosa ATCC®9027™. The description is as above. The series is classed as cell-based. Conditions: for reduction in absolute P. aeruginosa counts compared to reference and guaiacol solution: 0.005%-0.0000391% (v/v) GOX+LPO.
From the text: as §1, §2

In series [3] the test system is Aspergillus niger ATCC®16404™. The experiment in a line: MBC determination, broth microdilution with CFU enumeration. It is filed as cell-based. The following applies: A. niger. As for the experimental part: (§3) The minimal bactericidal concentration (MBC) is defined as the lowest concentration of an antimicrobial agent that results in a complete killing of the microbial population (determined via standard CFU enumeration techniques) after overnight incubation. This endpoint measurement is used, together with the MIC (see above), to define the microbial susceptibility towards an antimicrobial agent. Here, the antimicrobial agent is a combination of the natural enzymes GOX+LPO.
(§4) To determine the MBC of the described combinations, a classical broth microdilution assay combined with standard CFU enumeration techniques was used to determine the susceptibility of a series of microbes commonly detected in infected wounds, including (a) the Gram-positive bacterium Staphylococcus aureus ATCC® 6538™ (results shown below), (b) the Gram-negative bacterium Pseudomonas aeruginosa ATCC®9027™ (results shown below), (c) the yeast Candida albicans ATCC®10231™ (results shown below), and (d) the fungus Aspergillus niger ATCC®16404™ (results shown below). In brief, the broth microdilution assay was set up as previously described (see 2.1). After incubation, the MBC was determined by investigating the presence of viable microorganisms at the MIC and following higher concentrations (MICx2, MICx4, and so on) using standard CFU enumeration techniques. For each combination evaluated, this test was repeated at least 5 times. The collected data were further analyzed in MS Excel. Mean concentration data (expressed as log CFU/ml) were visualized in a table format in which the MBC was highlighted.

Series [4] relates to Pseudomonas aeruginosa ATCC®9027™. The description is as above. It is filed as cell-based. The following applies: P. aeruginosa. As for the experimental part: as §3, §4
In series [5] the test system is P. aeruginosa (ATCC®9027™). The experiment in a line: Microbial challenge testing in alginogel with GOX+LPO. The series is classed as cell-based. Conditions: for reduction in absolute P. aeruginosa counts compared to guaiacol in the same concentration: alginogel with GOX+LPO, enhancer 0.0005%; for antimicrobial activity of enhancing candidate only against P. aeruginosa: alginogel without enzymes, highest concentration tested; for reduction in absolute P. aeruginosa counts compared to reference (enzymes only): alginogel, 0.0075% GOX+LPO. As for the experimental part: (§5) To determine the ability of an antimicrobial agent to elicit an antimicrobial preserving efficacy in a gel environment, a microbiological challenge test can be performed. Here, the antimicrobial agent is a combination of the natural enzymes GOX+LPO. […] Microbial challenge testing was performed according to the method described in the European Pharmacopoeia current version chapter 5.1.3 ‘Efficacy of antimicrobial preservation’, but with adapted time points (0, 10, 20, 30, 40, 50, 60, 70 and 80 min instead of 0, 2, 7, 14 and 28 days). In brief, for every enhancing agent to be evaluated, a lab-scale alginogel (based on the Flaminal® formulation, but without the original enhancer guaiacol) including 0.0075% GOX+LPO (1:1) was prepared according to standard practices. Enhancing agents were added to the alginogel in a final concentration ranging from 0.01 to 0,00025% (v/w). As a reference, an alginogel including 0.0075% GOX+LPO (1:1) without the addition of any enhancing agent was included (designated as: enzymes only). As a control, an alginogel without both GOX+LPO (1:1) enzyme solution and enhancing agent (designated as: empty gel) as well as an alginogel only containing the enhancing agent only (designated as: enhancing candidate only) were included. After preparation, a homogenous sample of 10 g was transferred into a 50 ml conical tube for each alginogel to be evaluated and microorganism to be tested. For each test microorganism, including S. aureus (ATCC®6538™), P. aeruginosa (ATCC®9027™), C. albicans (ATCC®10231™) and A. niger (ATCC®16404 ™), a microbial suspension of about 10^8 CFU/ml was prepared in sterile diluent (buffered sodium chloride-peptone solution). Then, the 50 ml conical tubes containing the alginogel samples to be evaluated were inoculated with 100 μl of the designated inoculum. At the start (time point 0) and after 0, 10, 20, 30, 40, 50, 60, 70 and 80 min, the number of viable microorganisms per gram product (expressed as CFU/g) was determined by transferring a sample of 0.5 g of the product into a 15 ml conical tube containing 4.5 ml of sterile diluent and applying general dilution and plate count techniques. For each combination evaluated, this test was repeated at least 1-3 times. The collected data were further analyzed in MS Excel. Mean absolute counts (expressed as log CFU/g) were visualized in a graph.

The subject of series [6] is C. albicans (ATCC®10231™). The series is described as above. The series is classed as cell-based. The following applies: for reduction in absolute C. albicans counts compared to guaiacol in the same concentration: alginogel with GOX+LPO, enhancer 0.0005%; for antimicrobial activity of enhancing candidate only against C. albicans: alginogel without enzymes, highest concentration tested; for reduction in absolute C. albicans counts compared to reference (enzymes only): alginogel, 0.0075% GOX+LPO. As for the experimental part:
as §5

In series [7] the test system is A. niger (ATCC®16404 ™). The series is described as above. The series is classed as cell-based. The following applies: for reduction in absolute A. niger counts compared to guaiacol in the same concentration: alginogel with GOX+LPO; for antimicrobial activity of enhancing candidate only against A. niger: alginogel without enzymes, highest concentration tested; for reduction in absolute A. niger counts compared to reference (enzymes only): alginogel, 0.0075% GOX+LPO. As for the experimental part: as §5

The conditions of series [8]: exemplary values; cited from earlier work.
The mark [9] stands for this setting: enhancer 0,1%, 0,005%-0.000625% (v/v) GOX+LPO.
Where [10] appears, read: enhancer 1%, 0,005%-0.000156% (v/v) GOX+LPO.

`C[C@@H](O)[C@H](N)C(=O)O` [Threonine, threonine]: the “reduction in absolute A. niger counts compared to reference” value in series [1] (enhancer 1-0.01%) was “stronger reduction”. For the same molecule, the “reduction in absolute P. aeruginosa counts compared to reference” value in series [2] (setting [9]) and in series [2] (setting [10]) was “stronger reduction” throughout. For the same molecule, the “MBC: GOX+LPO enzyme solution needed” value in series [3] (enhancer 1%-0.01%) was 0.000156 % (v/v); in series [4] (enhancer 0,1%), 0.000625 % (v/v); in series [4] (enhancer 1%), 0.000156 % (v/v). The figures for the “increase in MBC compared to reference” value in series [3] (enhancer 1%-0.01%), in series [4] (enhancer 0,1%) and in series [4] (enhancer 1%) were 2 ×, 2 × and 8 ×, respectively. Further, the “reduction in absolute P. aeruginosa counts compared to guaiacol in the same concentration” value in series [5] was “faster complete reduction”. The “antimicrobial activity of enhancing candidate only against P. aeruginosa” value (“antimicrobial activity … against P. aeruginosa” below) in series [5] is recorded as “no antimicrobial activity”. The “reduction in absolute P. aeruginosa counts compared to reference (enzymes only)” value in series [5] (enhancer 0.00125-0.0005%) is listed as “faster complete reduction”; in series [5] (enhancer 0.0025%), “immediate entire reduction”. The “reduction in absolute C. albicans counts compared to guaiacol in the same concentration” value in series [6] was “faster complete reduction”. For the same molecule, the “antimicrobial activity of enhancing candidate only against C. albicans” value (from here on “antimicrobial activity … against C. albicans”) in series [6] is “no antimicrobial activity”. For the same molecule, the figures for the “reduction in absolute C. albicans counts compared to reference (enzymes only)” value in series [6] (enhancer 0.0025%) and in series [6] (enhancer 0,00125-0,0005%) were “immediate entire reduction” and “faster complete reduction”, respectively. For the same molecule, the “reduction in absolute A. niger counts compared to guaiacol in the same concentration” value in series [7] (enhancer 0.0025%) is “faster complete reduction”. Further, in series [7], the “antimicrobial activity of enhancing candidate only against A. niger” value (“antimicrobial activity … against A. niger” for short) is “no antimicrobial activity”. Also, in series [7] (enhancer 0.0025%), the “reduction in absolute A. niger counts compared to reference (enzymes only)” value was “faster complete reduction”. The “LogP (octanol/water partition coefficient)” value in series [8] is “LogP = −2.94”.

In the case of `O=C(O)[C@@H]1CCCN1` [Proline, proline], the “reduction in absolute A. niger counts compared to reference” value in series [1] (enhancer 1-0.01%) is listed as “stronger reduction”. In addition, the “reduction in absolute P. aeruginosa counts compared to reference and guaiacol solution” value in series [2] (enhancer 0.0025-0.00125%) and in series [2] (enhancer 0.01-0.001%) was “stronger reduction” throughout. The “MBC: GOX+LPO enzyme solution needed” value is 0.000156 % (v/v) in series [3] (enhancer 1%-0.01%), 0.000625 % (v/v) in series [4] (enhancer 0.0025-0.00125%) and 0.000625 % (v/v) in series [4] (enhancer 0.01-0.005%). Also, the “increase in MBC compared to reference” value in series [3] (enhancer 1%-0.01%) turned out to be 2 ×. In addition, the “increase in MBC compared to reference or guaiacol solution” value in series [4] (enhancer 0.0025-0.00125%) and in series [4] (enhancer 0.01-0.005%) was 2 × in each case. Moreover, in series [5], the “reduction in absolute P. aeruginosa counts compared to guaiacol in the same concentration” value is reported as “faster complete reduction”. Further, the “antimicrobial activity … against P. aeruginosa” value in series [5] is given as “no antimicrobial activity”. The results for the “reduction in absolute P. aeruginosa counts compared to reference (enzymes only)” value in series [5] (enhancer 0.00125-0.0005%) and in series [5] (enhancer 0.0025%) were “faster complete reduction” and “immediate entire reduction”, respectively. Also, the “reduction in absolute C. albicans counts compared to guaiacol in the same concentration” value in series [6] is recorded as “faster complete reduction”. Also, the “antimicrobial activity … against C. albicans” value in series [6] is “no antimicrobial activity”. Further, the “reduction in absolute C. albicans counts compared to reference (enzymes only)” value was “faster complete reduction” in series [6] (enhancer 0.00125%) and “immediate entire reduction” in series [6] (enhancer 0.0025%). Besides, the “reduction in absolute A. niger counts compared to guaiacol in the same concentration” value in series [7] (enhancer 0.0005%) is “faster complete reduction”. The “antimicrobial activity … against A. niger” value in series [7] was “no antimicrobial activity”. Also, the “reduction in absolute A. niger counts compared to reference (enzymes only)” value in series [7] (enhancer 0.0025%) is reported as “faster complete reduction”. The “LogP (octanol/water partition coefficient)” value in series [8] is “LogP = −2.54”.

For `NC(=O)C[C@H](N)C(=O)O` [Asparagine, asparagine], the “reduction in absolute A. niger counts compared to reference” value in series [1] (enhancer 1-0.05%) is on record as “stronger reduction”. Moreover, the “reduction in absolute P. aeruginosa counts compared to reference” value in series [2] (setting [9]) and in series [2] (setting [10]) was “stronger reduction” in each case. The “MBC: GOX+LPO enzyme solution needed” value in series [3] (enhancer 1%-0.05%) was 0.000156 % (v/v); in series [4] (enhancer 0,1%), 0.000625 % (v/v); in series [4] (enhancer 1%) it was 0.000156 % (v/v). The “increase in MBC compared to reference” value in series [3] (enhancer 1%-0.05%) is 2 ×; in series [4] (enhancer 0,1%), 2 ×; in series [4] (enhancer 1%), 8 ×. Moreover, the “antimicrobial activity … against P. aeruginosa” value in series [5] is “no antimicrobial activity”. Also, the “reduction in absolute P. aeruginosa counts compared to reference (enzymes only)” value is reported as “immediate entire reduction” in series [5] (enhancer 0.0025%) and “faster complete reduction” in series [5] (enhancer 0,00125%). In addition, in series [6], the “antimicrobial activity … against C. albicans” value is “no antimicrobial activity”. The “reduction in absolute C. albicans counts compared to reference (enzymes only)” value is listed as “faster complete reduction” in series [6] (enhancer 0.00125%) and “immediate entire reduction” in series [6] (enhancer 0.0025%). The “reduction in absolute A. niger counts compared to guaiacol in the same concentration” value in series [7] (enhancer 0.0005%) is recorded as “faster complete reduction”. The “antimicrobial activity … against A. niger” value in series [7] was “no antimicrobial activity”. Besides, the “reduction in absolute A. niger counts compared to reference (enzymes only)” value in series [7] (enhancer 0,0025-0,0005%) is “faster complete reduction”. In addition, the “LogP (octanol/water partition coefficient)” value in series [8] is on record as “LogP = −3.82”.
